“Also recorded” adds a separate entry of the source.
Assays:
[1] = Mouse oral supplementation, retinoid levels in serum, brain and liver (LC-MS); type: in vivo; conditions: mice
Experimental: For metabolic analyses ATROL, 9CDHROL, 9CDHBC and control solutions were prepared as described above. Single per os application of the dose of 40 mg/kg of each substance was used to treat mice in the evening and samples were collected 11 h later in the light protected conditions, weighted, frozen in liquid nitrogen and stored at −80° C. until analyses. Serum was prepared and immediately stored in brown vials at −80° C., till further analysis.
Accordingly, for sample preparation 100 mg of the material (if samples were under 100 mg, water was added up to the used standard weight: 100 mg) or 100 μl serum was diluted with a threefold volume of isopropanol, the tissues were minced by scissors, vortexed for 10 seconds, put in a ultrasonic bath for 5 minutes, shaken for 6 minutes and centrifuged at 13000 rpm in a Heraeus BIOFUGE Fresco at +4° C. […] The dried extracts were resuspended with 30 μl of methanol—MTBE (50-50) and transferred into the autosampler and 10 μl subsequently analysed.
Mouse brain samples were prepared according to the procedure described above. Briefly, after single per os application of the dose of 40 mg/kg of 9CDHROL (or other cited substances) in the evening mice were sacrificed after 11 hours and tissues samples including brain were dissected under light-protection conditions, weighted, frozen in liquid nitrogen and stored at −80° C. until analyses. Serum was prepared and immediately stored in brown vials at −80° C., till further analysis.
For mouse supplementation experiments we treated n=6 mice per os with 40 mg/kg bw 9CDHROL and 11 h after the treatment the mice were killed and blood, brain and liver was taken. After centrifugation of the drawn blood, serum was obtained.

[2] = test system: oligodendrocytes cell line 158N; assay: Metabolic conversion in mouse oligodendrocytes cell culture (LC-MS); type: in vitro ADME
Experimental: Normal immortalized oligodendrocytes cell line 158N was cultured as previously reported (Feutz et al., 2001). Expediently, cells were cultured in supplemented with 5% calf serum (Invitrogen, France). When cells attained 70% of confluency they were treated with 10^−2 M ethanol solution of one of the following compounds: 9CDHROL, 9CDHROL-acetate, 9CDHRA-ethyl ester. 9CDHRA and ethanol as controls, vehicle treatment. 18 h after treatment cells were collected in amber Eppendorf tubes and stored at −80° C. until analyses. Treatments and cell collection were carried out in light limited conditions to avoid photolysis of retinoids.
(§1) In a slight variant of the method, after reaching confluency of 80% cells were treated with 9CDHROL, 9CDH-retinyl ester (acetate, 9CDHROL-ES), 9CDHRA, 9CDH-retinoyl ester, (ethyl ester, 9CDHRA-ES), ATROL, 9CDHBC, 9CBC and ATBC at a concentration of 10^−6 M or ethanol at corresponding concentration was used as control vehicle treatment. Cells were harvested 18 hours later, centrifuged, weighted, frozen in liquid nitrogen and stored at −80° C. until analyses.
(§2) High performance liquid chromatography mass spectrometry (LC-MS) was carried out as described in Example 4.

[3] = test system: human oligodendrocytes cell cultures; assay: Metabolic conversion in human oligodendrocytes cell culture (HPLC-MS); type: in vitro ADME; conditions: 10^−6M, n=3
Experimental: as §1, §2
9CDHRA levels including standard deviation in human oligodendrocytes cultures were assessed using HPLC-MS analysis after control treatment using ethanol (CTRL), as well as ATROL treatment (ATROL), 9CBC treatments (9CBC), ATBC treatments (ATBC), 9CDHBC treatment (9CDHBC), 9CDHROL treatments (9CDHROL), 9CDHROL-ester treatments (9CDHROL-ES), 9CDHRA treatments (9CDHRA) or 9CDHRA-ester treatments (9CDHRA-ES), each with 10^−6M concentration and n=3 (FIG. 14D).

[4] = test system: Rbp1−/−, Rxrγ−/− and WT mice; assay: Delayed non-match to place (DNMTP) working memory task in the T-maze; type: in vivo, mouse; conditions: ITI of 6 min
Experimental: Behaviorally naïve groups of mice were tested in the DNMTP (delayed non-match to place) procedure in the T-maze according to a protocol previously described (Wietrzych et al., 2005), with modifications to facilitate pharmacological tests (Wietrzych-Schindler et al., 2011). Spontaneous alternation was evaluated in the Ymaze apparatus according to protocol described in detail below.
Specifically, in the present protocol, animals were first trained for 10 consecutive days with minimal inter-trial intervals (ITI) of about 15 sec, which was necessary to attain the criterion of 90% or more of correct choices during […] consecutive days (days 9-10). After this period ITI was increased semi-randomly by blocks of 3-6 min during 5 consecutive days (days 11-15 indicated) to determine “test ITI” for each animal, which was defined as the shortest ITI at which mice perform at chance level. From day 16 mice were tested using corresponding “test ITI” delays following vehicle injection on the day 16 (to test for the effect of vehicle alone) and following 9CDHROL (40 mg/kg) injection on day 17. Three mice were excluded from testing since their latency to choose the arm during the retention phase exceeded 3 min in more than one trial/day on three consecutive days (exclusion criterion). On the day 18 mice were again injected (IP) with 9CDHROL (40 mg/kg) and 9 hours later sacrificed for chemical analyses. Mice which received vehicle injections on three consecutive days were used as vehicle-treated controls for analyses of 9CDHROL metabolism. An additional group of 3 naïve mice was also injected with 9CDHROL (40 mg/kg) to test for 9CDHROL metabolism following acute treatment.
In this variant, animals were first trained for 9 consecutive days of with minimal inter-trial intervals (ITI) of about 15 sec, which was necessary to attain the criterion of 90% or more of correct choices during three consecutive days (days 7-9). After this period ITI was increased semi-randomly to 180, 360, 720 and for some WT mice also 1080 seconds so that each animal was tested 6 times with each interval during four consecutive days (days 10-13 indicated). From day 13 mice were tested only twice per week beginning with training session on day one (with minimal, 15 sec ITIs) and testing pharmacological treatments on the second day. Only one pharmacological treatment was tested every 7 days. To test pro-mnemonic activities of UVI2108 and (R)-9CDHRA inventors used a minimal ITI, at which mice performed at chance level (50%) and which was 6 min for the Rbp1−/− or Rxrγ−/− groups and 12 min for most WT mice with exception of two mice tested at 18 min. Four mice (two wild types and one of each knockout line), were excluded from testing since their latency to choose the arm during the retention phase exceeded 3 min in more than one trial/day on three consecutive days (exclusion criterion).
For behavioral analysis, 9CDHROL and 9CDHBC were dissolved in ethanol, and then mixed with sunflower oil, so that the final solution contained 3% ethanol. Vehicle treatments consisted of 3% ethanol solution in sunflower oil. For memory studies treatments with 9CDHRA were administered by intraperitoneal injections at volume/weight ratio 3 ml/kg at 7 am and 7 hours before the beginning of testing. For tests with animal model of chronic social defeat, different treatments were administered by intraperitoneal injections at volume/weight ratio 3 ml/kg at 10 mg/kg for each substance between 5-6 pm every second day of stress protocol immediately after the stress session starting from day 1 of the stress protocol.
(§3) Vehicle treatments consisted of 3% ethanol and 3% DMSO solution in sunflower oil. Treatments were administered by intraperitoneal injections at volume/weight ratio 3 ml/kg between 8-10 am and 5-6 h before the test as previously validated (Wietrzych-Schindler M, 2011).

Rbp1−/− and Rxrγ−/− mice = assay: Y-maze spontaneous alternation; type: in vivo, mouse; conditions: 5-6 hours prior to testing
Experimental: The Y-maze apparatus and the procedure were as previously described (Wietrzych et al., 2005). Briefly, each mouse was placed at the end of one arm and allowed to explore freely the apparatus for 5 min, with the experimenter out of the animal's sight. Spontaneous alternation performance (SAP) was assessed visually by scoring the pattern of entries into each arm and expressed as a percentage of total number of entries, discounting the first two visits. Total entries were scored as an index of ambulatory activity in the Y-maze, but none of tested mice had to be excluded due to low locomotor performance (score below 9 entries).
as §3

[5] = test system: Rbp1−/−, Rxrγ−/− and WT mice; assay: Forced swim test after acute treatment; type: in vivo, mouse; conditions: Rbp1−/− mice, acute i.p. treatment 5-6 h before the test
Experimental: (§4) The forced swim paradigm was carried out between 1 pm and 4 pm in a 3-litre glass beaker half-filled with water at 22-23° C. (the water depth was 17 cm). All mice were tested only once in this task. To this end, each mouse was lowered gently into the water and the time of immobility was scored during a 6-minute testing period. The mouse was judged immobile when it floated in an upright position and made only small movements to keep its head above the water. After 6 min, the mouse was taken out of the water, left to dry under a red light lamp and returned to its home cage. The immobility scores of each animal were used as an index of despair behavior.
as §3
as §4, with “paradigm (Dalvi and Lucki, 1999)” for “paradigm”, “2-litre” for “3-litre”

[6] = test system: differentiating monocyte-derived human dendritic cells; assay: DNA microarray in differentiating monocyte-derived dendritic cells; type: cell-based
Experimental: The generation and transcriptional analysis of differentiating DCs were performed as described previously [Szeles L et al. 2010]. Microarray data were deposited into the Gene Expression Omnibus database under accession no. GSE48573.
The generation and analysis of differentiating DCs were performed as described previously [Szeles L et al. 2010] with minor modifications. Briefly, human monocytes were isolated from healthy volunteer's buffy coat, obtained with a Regional Ethical Board permit from the Regional Blood Bank and isolated by Ficoll gradient centrifugation followed by immunomagnetic cell separation, and were cultured in the presence of GM-CSF and IL-4. Differentiating DCs were stimulated 18 h after […] by various agonists for 12 h. The ligands were used in the following concentrations: 10 μM (R)-9CDHRA, 10 μM (S)-9CDHRA, 1 μM 9cisRA, 100 nM LG100268, 1 μM GW3965, 1 μM Rosiglitazone (RSG), 1 μM GW1516, 100 nM AM580. Experiments were performed in biological triplicates. Samples were processed and hybridized to Human Genome U133 Plus 2.0 Arrays. Data were analysed using to GeneSpring 12.6.1 software. In detail, normalization was performed using RMA summarization algorithm. […] Microarray data were deposited into the Gene Expression Omnibus database under accession no. GSE48573.

hRXRα LBD = biological target: T1, hRXRα LBD (Homo sapiens, UniProt P19793); assay: ESI-MS in non-denaturing conditions, binding to RXR LBD; design: cDNAs encoding hRXRα LBD (223-462); His-tag (N); made in house; conditions: 5-fold molar excess of ligand
T1 sequence (P19793 223-462): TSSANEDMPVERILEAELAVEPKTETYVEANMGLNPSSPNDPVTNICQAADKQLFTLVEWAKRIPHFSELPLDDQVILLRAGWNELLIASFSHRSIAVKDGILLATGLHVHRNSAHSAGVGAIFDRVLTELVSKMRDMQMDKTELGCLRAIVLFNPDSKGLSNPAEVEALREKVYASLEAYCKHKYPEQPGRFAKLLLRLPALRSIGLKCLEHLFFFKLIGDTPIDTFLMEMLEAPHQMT
Experimental: (§5) cDNAs encoding hRXRα LBD (223-462), hRARα LBD (153-421), hRARBβ LBD (169-414) and hRARγ LBD (178-423) were cloned into pET28b vector to generate N-terminal Histag fusion proteins. Purification was carried out as previously described [Lippert W P et al. 2009, Osz J, et al. 2012], including a metal affinity chromatography and a gel filtration. For details of sample preparation and ESI-MS analyses see below.
cDNAs encoding hRXRαLBD (223-462), hRARαLBD (153-421), hRARβLBD (169-414) and hRARγ LBD (178-423) were cloned into pET28b vector to generate N-terminal His-tag fusion proteins. Purification was carried out as previously described [Lippert W P et al. 2009, Osz J, et al. 2012], including a metal affinity chromatography and a gel filtration. Prior to ESI-MS analysis, samples were desalted on Zeba Spin desalting columns (Pierce) in 150 mM ammonium acetate (pH 8.0). ESI-MS measurements were performed on an electrospray time-of-flight mass spectrometer (MicrOTOF, Bruker Daltonics). Purity and homogeneity of the proteins were verified by mass spectrometry in denaturing conditions (samples were diluted at 2 pmol/μl in a 1:1 water-acetonitrile mixture (v/v) acidified with 1% formic acid). The mass measurements of the noncovalent complexes were performed in ammonium acetate (200 mM; pH 8.0). Samples were diluted to 8 pmol/ml in the previous buffer and continuously infused into the ESI ion source at a flow rate of […] through a Harvard syringe pump (Harvard Apparatus model 11). A careful optimization of the interface parameters was performed to obtain the best sensitivity and spectrum quality without affecting the noncovalent complexes stability. In particular, the capillary exit (CE) ranged from 60 to 150 V with a vacuum interface pressure of 2.3 mbar and was set to 80 V. For ligand-interaction analysis, ligands were added to the proteins in a 5-fold molar excess.

hRARα, β and γ LBDs = assay: ESI-MS in non-denaturing conditions, binding to RAR LBD isotypes; design: species or system human; conditions: 5-fold molar excess of ligand
Experimental: as §5
cDNAs encoding hRXRαLBD (223-462), hRARαLBD (153-421), hRARβLBD (169-414) and hRARγ LBD (178-423) were cloned into pET28b vector to generate N-terminal His-tag fusion proteins. Purification was carried out as previously described [Lippert W P et al. 2009, Osz J, et al. 2012], including a metal affinity chromatography and a gel filtration. Prior to ESI-MS analysis, samples were desalted on Zeba Spin desalting columns (Pierce) in 150 mM ammonium acetate (pH 8.0). ESI-MS measurements were performed on an electrospray time-of-flight mass spectrometer (MicrOTOF, Bruker Daltonics). Purity and homogeneity of the proteins were verified by mass spectrometry in denaturing conditions (samples were diluted at 2 pmol/μl in a 1:1 water-acetonitrile mixture (v/v) acidified with 1% formic acid). The mass measurements of the noncovalent complexes were performed in ammonium acetate (200 mM; pH 8.0). […]

[7] = per os 40 mg/kg, 11 h after treatment

## CC1=C(/C=C/C(C)=C/C=C/C(C)=C/CO)C(C)(C)CCC1 [ATROL, all-trans-retinol, reference compound]
[1]; oral gavage 40 mg/kg
  ATROL levels in mouse organs after treatment: strongly and significantly increased ATROL levels
[1]; [7]
  9CDHRA levels in serum, brain and liver after treatment (conversion to 9CDHRA): significantly increased levels in brain and liver
  9CDHROL levels in serum, brain and liver after treatment: did not increase
[2]; 10^−6M
  ATROL levels in cells after treatment: strongly and significantly increased ATROL levels
[2]; 10^−6 M, 18 hours
  9CDHROL levels in cells after treatment: no or just a weak increase; also recorded: weak significant increase
[2]; data not shown
  conversion to 9CDHRA: not converted to 9CDHRA
[3]
  9CDHRA levels in cells after treatment (metabolism / accumulation): not converted to 9CDHRA

## CC1=C(/C=C/C(C)=C/C=C/C(C)=C/C(=O)O)C(C)(C)CCC1 [ATRA, all-trans-retinoic acid]
[4]; Rbp1−/− mice, acute treatment, (R)-9CDHRA 1 or 2 mg/kg
  working memory performance in DNMTP task: reversed memory deficits
[4]; Rxrγ−/− mice
  working memory performance in DNMTP task: remained ineffective
Rbp1−/− and Rxrγ−/− mice; Rbp1−/− mice, ATRA 5 mg/kg, UVI2108 1 mg/kg, MA 5 mg/kg, DHA 1 mg/kg, TTNPB 5 mg/kg
  working memory in spontaneous alternation in the Y-maze: normalised; also recorded: pro-mnemonic effects
Rbp1−/− and Rxrγ−/− mice; Rxrγ−/− mice, same doses
  working memory in spontaneous alternation in the Y-maze: not
[5]
  immobility (despair) in the forced swim test: reduced significantly immobility time

## CC1=C(/C=C/C(C)=C\C=C\[C@@H](C)CC(=O)O)C(C)(C)CCC1 [(S)-9CDHRA, (9Z,13S)-13,14-Dihydroretinoic Acid]
[6]
  overlap in transcriptional changes with 9CRA: about 80%
[6]; 9CDHRA 10 μM, 9CRA 1 μM, LG268 100 nM, GW3965 1 μM, RSG 1 μM, GW1516 1 μM, AM580 100 nM
  expression of genes that are direct targets of RXR permissive heterodimers (LXR-RXR, PPAR-RXR) and RAR-RXR: induced the expression of genes
hRXRα LBD
  binding to RXR LBD in ESI-MS: lower affinity
hRARα, β and γ LBDs
  binding to RAR LBD isotypes in ESI-MS: bind to all RAR LBD isotypes
